Assays:
ghrelin receptor = ghrelin receptor (Homo sapiens, UniProt Q92847); settings: ghrelin receptor antagonist; Sigma Aldrich; read-out: IC50 for antagonistic activity; cited from earlier work
Protein kinase A (PKA) = test: PKA activity assay in cardiomyocytes (ELISA-based kit); format: cell-based, mouse; settings: isolated cardiomyocytes, pretreatment before AC01/HM01 1 μM
Protocol: (§1) AC01/HM01 was suspended in phosphate buffer saline solution (PBS: in mM: NaCl 137, KCl 7, Na2HPO4 10, KH2PO4 […]) and diluted to obtain 3 different concentrations: 0.2, 0.5 or 1 μM in Tyrode solution. We used a concentration range within 0.2-1 μM to ensure that the receptor was activated. […] Prior to contractility and Ca^2+ signaling measurements and biochemical assays, cardiomyocyte suspensions from SHAM and HF hearts were randomized to 3 types of treatments: vehicle, AC01/HM01, or D-Lys3-GHPR-6+AC01/HM01. The treatment with different agents occurred for 15 minutes at room temperature. Some cell suspension aliquots were flash frozen in liquid N2 and stored at −80° C. for later biochemistry analyses. All the experiments were conducted blinded regarding the treatment of cardiomyocytes.
Elisa-based PKA kinase activity assay kit (ab139435, Abcam, Cambridge, UK) was employed to determine PKA activity in cardiomyocytes. Aliquots of frozen cardiomyocytes were thawed and mixed with a lysis buffer containing (mM) the following: 20 MOPS, 50 β-glycerolphosphate, 5 EGTA, 2 EDTA, 1 benzamidine, 1 sodium orthovanadate, 1% NP40, 1 DTT, complete protease inhibitor cocktail (Roche Diagnostics, West Sussex, UK) and phosphatase inhibitor cocktail 3 (Sigma, Gillingham, UK). Approximately 2 μg of protein of each sample were assayed according to the manufacturer's instructions 27.

[1] = tested on: cardiomyocytes isolated from hearts of heart failure (HF) mice; test: Cardiomyocyte contractility (fractional shortening, % FS), heart failure (MI) cardiomyocytes; format: cell-based, mouse; settings: antagonist 3 μM before AC01/HM01 1 μM
Protocol: (§2) Cardiomyocytes were isolated freshly from cardiac ventricles separately from SHAM and HF mice following the protocol developed by the Alliance for Cellular Signalling (AfCS Procedure Protocol ID PP00000125). From each of the 5 SHAM and 3 HF hearts a cell suspension was made and divided into 10 aliquots each, for a total of 50 aliquots from SHAM and 30 aliquots from HF hearts. These aliquots were treated with vehicle, AC01/HM01 or D-Lys3-GHPR-6+AC01/HM01 as stated and used for the subsequent physiological and biochemical experiments.
AC01/HM01 was suspended in phosphate buffer saline solution (PBS: in mM: NaCl 137, KCl 7, Na2HPO4 10, KH2PO4 […]) and diluted to obtain 3 different concentrations: 0.2, 0.5 or 1 μM in Tyrode solution. We used a concentration range within 0.2-1 μM to ensure that the receptor was activated. […]
(§3) Line scan fluorescence images were acquired using a confocal microscope (Biorad; 40× oil immersion lenses). […] ImageJ software (open source software developed by NIH, Bethesda, USA) was used to quantify changes in fluorescence (Ca^2+ transients) and contractility of single cardiomyocytes.
(§4) The contractility of cardiomyocytes was measured as the percent of length shortening (fractional shortening; % FS). […]

[2] = tested on: cardiomyocytes isolated from hearts of SHAM mice; test: Cardiomyocyte contractility (fractional shortening, % FS), SHAM cardiomyocytes; format: cell-based, mouse; settings: antagonist 3 μM before AC01/HM01 1 μM
Protocol: as §2, §1
Fresh isolated cardiomyocytes were aliquoted in 1.5 mL tubes and incubated with a cell permeable form of the fluorescent Ca^2+ indicator Fluo-3 AM for approximately 20 minutes followed by washing for >5 min. The cells were plated on laminin coated glass bottom dishes (35 mm, Mattek, Ashland, MA, USA), and then mounted in a custom built perfusion/stimulation chamber. Cells were continuously perfused with O2/CO2 (95/5%) bubbled Tyrode solution with the following composition (in mM): NaCl 121, KCl 5.0, CaCl2 1.8, MgCl2 0.5, NaH2PO4 0.4, NaHCO3 24, EDTA 0.1, glucose 5.5, which represents the vehicle solution.
15 aliquots of cardiomyocyte suspension from SHAM and 9 aliquots from HF were randomized to different treatments: vehicle, AC01/HM01 (0.2, 0.5 or 1 μM) or pretreatment with D-Lys3-GHPR-6 (3 μM) followed by AC01/HM01 (1 μM). The cardiomyocytes were electrically stimulated to contract at 1 Hz with supra-threshold voltage using two platinum electrodes attached to the perfusion/stimulation chamber.
as §3, §4

[3] = tested on: phospho (Ser 22-23) cardiac troponin I (cTnl); test: Phospho (Ser 22-23) cTnl western blot in cardiomyocytes; format: cell-based, mouse; settings: SHAM cardiomyocytes, antagonist 3 μM before AC01/HM01 1 μM
Protocol: as §1
Aliquots of frozen cardiomyocyte suspensions were lysed using NP40 buffer (Thermo Fisher FNN0021, Stockholm, Sweden) supplemented with phosphatase inhibitors (Sigma-Aldrich P2850-1ML, P5726-1ML, Stockholm, Sweden). Protein lysates were separated by electrophoresis and transferred onto membranes. Membranes were incubated with primary antibody: rabbit anti phospho (Ser 22-23) cardiac troponin I (cTnl, Cell Signalling, Leiden, The Netherlands #4004S) and rabbit anti-cTnl (Cell Signalling #4002S, Leiden, The Netherlands). Thereafter, infrared-labelled secondary antibodies (IRDye 680 and IRDye 800, 1:5000, Licor) were used. Immunoreactive bands were analyzed using the Odyssey Infrared Imaging System (Li-Cor, Bad Homburg, Germany). Band densities were quantified with Image J (NIH, Bethesda, USA), normalized to total cTnl and final data was expressed as fold increase compared to bands representing protein extracted from vehicle treated cells.

Sequence of ghrelin receptor (Q92847 whole entry, species assumed): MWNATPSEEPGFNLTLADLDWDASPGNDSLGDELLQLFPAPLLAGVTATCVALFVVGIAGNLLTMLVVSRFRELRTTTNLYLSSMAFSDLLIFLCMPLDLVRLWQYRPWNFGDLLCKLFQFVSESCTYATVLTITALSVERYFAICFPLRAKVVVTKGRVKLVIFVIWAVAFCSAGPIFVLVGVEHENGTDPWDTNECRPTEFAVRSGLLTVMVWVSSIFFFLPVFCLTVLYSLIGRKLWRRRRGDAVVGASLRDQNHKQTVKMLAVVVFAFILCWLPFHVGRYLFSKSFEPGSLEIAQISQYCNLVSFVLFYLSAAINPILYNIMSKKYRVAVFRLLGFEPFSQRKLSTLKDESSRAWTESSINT

D-Lys 3 GHRP-6 [reference compound]
IC50 (ghrelin receptor): 900 nM | effect of pretreatment on AC01/HM01-induced change of PKA activity (Protein kinase A (PKA); listed as D-Lys 3): blocked | effect of pretreatment on AC01/HM01-induced change of PKA activity (Protein kinase A (PKA); listed as D-Lys 3-GHRP-6): restored the PKA activity to physiologic levels | effect of pretreatment on contractile effect of AC01/HM01 [1]: blocked the contractile effect | effect of pretreatment on contractile effect of AC01/HM01 [2]: blocked the contractile effect | effect of pretreatment on AC01/HM01-induced change of cTnl phosphorylation ([3]; listed as D-Lys3): blocked this effect | effect of pretreatment on AC01/HM01-induced change of cTnl phosphorylation ([3]; listed as D-Lys3—GHRP-6): restored the phosphorylation levels of cTnl to physiologic levels
